Type in all cases: biochemical
In assay [1] the target is T1, Zea mays bx9 glucosyl transferase (C-terminally his tagged SEQ ID NO: 1) (Zea mays, UniProt B4G072).
T1 construct: His tag (C); made in house; host or cells: E. coli BL21 (DE3), pET24a
T1 sequence (B4G072 1-462): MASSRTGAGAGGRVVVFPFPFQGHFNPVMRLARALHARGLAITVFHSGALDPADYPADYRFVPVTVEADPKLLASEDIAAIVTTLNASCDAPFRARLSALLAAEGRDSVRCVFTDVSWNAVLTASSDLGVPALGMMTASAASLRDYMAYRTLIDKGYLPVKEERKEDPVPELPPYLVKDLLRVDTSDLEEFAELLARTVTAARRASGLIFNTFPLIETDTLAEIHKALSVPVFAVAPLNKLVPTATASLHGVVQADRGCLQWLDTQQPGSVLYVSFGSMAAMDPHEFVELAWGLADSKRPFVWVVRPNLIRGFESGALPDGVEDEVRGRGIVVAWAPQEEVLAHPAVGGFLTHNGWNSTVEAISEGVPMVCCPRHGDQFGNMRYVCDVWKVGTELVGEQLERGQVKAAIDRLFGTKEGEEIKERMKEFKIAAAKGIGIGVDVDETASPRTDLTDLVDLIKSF
Kind of assay: UDP-Glo glucosyl transferase assay, purified enzyme.

Assay [2] concerns the target T2, SEQ ID 32, mutant bx-type glucosyl transferase (Zea mays, UniProt Q8W2B7, M283F).
T2 construct: 32; 9.98E+05; 1.75E+08; 8.33E+06; His tag; made in house
Kind of assay: LC/MS glucosyl transferase assay (glucoside peak area), purified enzyme. To be noted: about 60 min, ~15 pmol enzyme, relative quantification only. On the procedure: (§1) In an alternative method for assaying the various enzymes, the test glucosyl transferase enzyme is reacted with substrates exactly as above except that the assay is stopped by adding an equal volume of acetonitrile. Alternatively 50 or 100 μl samples from assay reactions are added to 500 μl ethyl acetate to stop the reaction. In this case samples are then vortexed and 400 μl of the ethyl acetate partition removed, dried down, and resuspended in 100 μl 80:20 acetonitrile/water. The formation of product gluco side and/or disappearance of substrate test herbicide is then monitored directly by LC/MS. Samples are analyzed by LC-MS using an Agilent 1290 liquid chromatography system and Thermo Q-Exactive mass spectrometer. The chromatography is achieved on a Waters Acquity C18 BEH (50×2.1 mm) 1.7 μm particle size column, using a 6 minute gradient run of Water (0.2% formic acid) and Acetonitrile. The Q-Exactive is operated in positive ionisation electrospray mode, using Full scan-AIF mode, at 35,000 resolution, between 100-800 m/z. All analytes are identified from the full scan data to within at least 5 ppm accuracy of their predicted pseudo-molecular ion [M+H]^+ m/z value. In order to obtain quantitative data standard curves are run using herbicides and herbicide glucosides synthesized as standards. Where these synthetic glucosides were not available the LC/MS assay could only be used to provide relative data.
(§2) DNA sequences, optimized for E. coli codon usage, were cloned, expressed and the various proteins purified and assayed as described in the foregoing examples. Using the UDP assay (as described in examples 1, 3 and 6) the data obtained from the Zea mays bx8 w/t protein and its variants was noisy due to relatively high background rates in DMSO reagent blanks. The values reported in the table 15 were thus monitored by LC/MS as described in example 1.

The target of assay [3] is T3, SEQ ID 34, mutant bx-type glucosyl transferase (Zea mays, UniProt Q8W2B7, V367W).
T3 construct: 34; 2.45E+05; 2.17E+07; 5.21E+06; His tag; made in house
The description is as above. To be noted: about 60 min, ~15 pmol enzyme, relative quantification only. As to the method:
as §1, §2

Assay [4] addresses T4, SEQ ID 36, mutant bx-type glucosyl transferase (Zea mays, UniProt Q8W2B7, M283F/S121V/S338K).
T4 construct: 36; 6.03E+06; 6.40E+09; 1.75E+08; His tag; made in house
The description is as above. To be noted: about 60 min, ~15 pmol enzyme, relative quantification only. On the procedure:
as §1, §2

Setting [5] is: 0.5 mM UDP-glucose, 25 C, pH 7.5, DMSO reagent blank as control.
The mark [6] stands for this setting: herbicide 0.500 mM, limit of detection about 0.001.
[7] abbreviates: herbicide mM: V 0.300, VI 0.250, VII 0.210, IV, VIII, XI, XXI, XX, XVIII, XVI, XV, XIV 0.200, others 1.000.
The mark [8] stands for this setting: control = inactive H24A mutant of bx9 (asterisk).

Structures are written as SMILES. Several values for one entry are separate records, joined by “and”; a condition that tells them apart may be missing. Identical values can stand only once.

We go through four compounds from patent publication US20200270588A1, “GLUCOSYL TRANSFERASE POLYPEPTIDES AND METHODS OF USE” (Syngenta Participations AG, priority 2017, published 2020).

Turning to `Cc1cnc(N2C(=O)N(C)CC2O)cc1C(F)(F)F` (stereo not shown) [XVIII], the kcat (as a rule, the maximal rate divided by the concentration of active sites) in assay [1] (setting [5]) amounted to 0.0040 s⁻¹. The Activity in assay [1] (setting [6]) stood at 0.002 pmol/sec/pmol enzyme; in assay [1] (setting [7]), 0.001 pmol/sec/pmol enzyme.
Consider `CN1CC(O)N(c2cc(C(F)(F)F)c(Cl)cn2)C1=O` (stereo not shown) [XI], for which the Activity in assay [1] (setting [6]) and in assay [1] (setting [7]) was 0.000 pmol/sec/pmol enzyme in each case. Besides, the “integrated peak area of beta-glucoside product” value (shortened to “integrated peak area”) was 9.98E+05 and 1.08E+06 in assay [2]; 2.45E+05 in assay [3]; 6.03E+06 and 6.40E+06 in assay [4].
For `CON1C(=O)N(c2cc(C(F)(F)F)ccn2)C(O)[C@@H]1C` (stereo partly shown) [Compound VI], the kcat in assay [1] (setting [5]) was 0.037 s⁻¹ and 0.044 s⁻¹; in assay [1] (setting [8]), 0.0430 s⁻¹. Moreover, the results for the Activity in assay [1] (setting [6]) and in assay [1] (setting [7]) were 0.013 pmol/sec/pmol enzyme and 0.012 pmol/sec/pmol enzyme, respectively. For the same compound, the “integrated peak area” value in assay [2] was 1.75E+08 and 1.89E+08; in assay [3], 2.17E+07 and 2.00E+07; in assay [4], 6.40E+09 and 6.87E+09.
Regarding `CN1CC(O)N(c2cc(C(F)(F)F)ccn2)C1=O` (stereo not shown) [Compound V], the turnover number (kcat) was 0.012 s⁻¹ and 0.021 s⁻¹ in assay [1] (setting [5]); 0.0181 s⁻¹ in assay [1] (setting [8]). The Activity in assay [1] (setting [6]) and in assay [1] (setting [7]) was 0.005 pmol/sec/pmol enzyme throughout. Also, the “integrated peak area” value in assay [2] is 8.33E+06 and 6.18E+06; in assay [3], 5.21E+06 and 4.16E+06; in assay [4], 1.75E+08 and 1.96E+08.
